Assay results: ChEMBL document CHEMBL4418269, “Novel Quinoline-Hepcidine Antagonists” (2012)

Each compound was assayed against T1, Hepcidin (Homo sapiens) (UniProt P81172) (assay: Inhibition of human hepcidin-stimulated recombinant C-terminal Halo-tagged human FPN internalization in MDCK cells at 10 uM incubated for 15 to 20 mins by Halo-tagged TMR based fluorescence assay relative to control).
T1 sequence (whole entry): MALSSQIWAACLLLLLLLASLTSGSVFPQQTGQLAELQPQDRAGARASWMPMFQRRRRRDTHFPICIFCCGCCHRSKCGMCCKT
Assay type: cell-based
`O=C(Oc1c(CN2CCOCC2)cc(Cl)c2cccnc12)c1ccccc1` was tested, and the inhibition was less than 50%. For `Oc1c(C(c2ccc(Cl)cc2)N2CCOCC2)cc(Cl)c2cccnc12` (stereo unspecified), the inhibition was less than 50%. `COc1cc(C(=O)Oc2c(CN3CCOCC3)cc(Cl)c3cccnc23)cc(OC)c1OC` was tested, and the inhibition was less than 50%. For `Oc1c(C(Nc2ccccn2)c2cccnc2)cc(Cl)c2cccnc12` (stereo unspecified), the inhibition was less than 50%. Compound `Oc1c(C(c2ccccn2)N2CCOCC2)ccc2cccnc12` (stereo unspecified) has an inhibition greater than 50%. With `O=C(Oc1c(CN2CCOCC2)cc(Cl)c2cccnc12)c1ccco1` the inhibition was less than 50%.
